pIC50: −log10 of the molar value.
Key:
[1] = AUC ( 0 to infinity ) in CD-1 mouse at 25 mg/kg, po by LC-MS/MS; assay type: ADME, organism-based; set-up: time infinity, route oral, dose 25 mg/kg; conditions: in vivo
[2] = Tmax in CD-1 mouse at 25 mg/kg, po by LC-MS/MS; assay type: ADME, organism-based; conditions: in vivo
[3] = AUC ( 0 to last) in CD-1 mouse at 25 mg/kg, po by LC-MS/MS; assay type: ADME, organism-based; set-up: time 0 - last, route oral, dose 25 mg/kg; conditions: in vivo
[4] = Selectivity index, ratio of CC50 for human RD cells to IC50 for Enterovirus A71 infected in human RD cells; assay type: toxicity, cell-based; conditions: read-out: Selectivity Index
[5] = AUC ( 0 to last) in CD-1 mouse at 5 mg/kg, iv by LC-MS/MS; assay type: ADME, organism-based; set-up: time 0 - last, route intravenous, dose 5 mg/kg; conditions: in vivo
[6] = Cmax in CD-1 mouse at 5 mg/kg, iv by LC-MS/MS; assay type: ADME, organism-based; set-up: route intravenous, dose 5 mg/kg; conditions: in vivo
[7] = Selectivity index, ratio of CC50 for human RD cells to IC50 for Enterovirus D68 infected in human RD cells; assay type: toxicity, cell-based; conditions: read-out: Selectivity Index
[8] = Half life in CD-1 mouse at 25 mg/kg, po by LC-MS/MS; assay type: ADME, organism-based; conditions: in vivo
[9] = tested on: enterovirus D68; experiment: Antiviral activity against Enterovirus D68 infected in human RD cells assessed as inhibition of viral replication measured after 4 days by Cell Titer-Glo luminescent cell viability assay; assay type: functional, organism-based; conditions: Enterovirus D, 96 h
[10] = Half life in CD-1 mouse at 5 mg/kg, iv by LC-MS/MS; assay type: ADME, organism-based; conditions: in vivo
[11] = AUC ( 0 to infinity ) in CD-1 mouse at 5 mg/kg, iv by LC-MS/MS; assay type: ADME, organism-based; set-up: route intravenous, time infinity, dose 5 mg/kg; conditions: in vivo
[12] = Tmax in CD-1 mouse at 5 mg/kg, iv by LC-MS/MS; assay type: ADME, organism-based; conditions: in vivo
[13] = tested on: Enterovirus A71; experiment: Antiviral activity against Enterovirus A71 infected in human RD cells assessed as inhibition of viral replication measured after 4 days by Cell Titer-Glo luminescent cell viability assay; assay type: functional, organism-based; conditions: Enterovirus A, 96 h
[14] = Cmax in CD-1 mouse at 25 mg/kg, po by LC-MS/MS; assay type: ADME, organism-based; set-up: route oral, dose 25 mg/kg; conditions: in vivo
[15] = tested on: RD; experiment: (§1) Cytotoxicity against human RD cells assessed as reduction in cell viability by Cell Titer-Glo luminescent cell viability assay; assay type: cell-based; conditions: rd
[16] = as §1; assay type: cell-based; conditions: RD cells
[17] = Cmax in CD-1 mouse assessed as parent NITD008 level at 5 mg/kg, iv by LC-MS/MS analysis; assay type: ADME, organism-based; set-up: route intravenous, dose 5 mg/kg; conditions: in vivo
[18] = Tmax in CD-1 mouse assessed as parent NITD008 level at 5 mg/kg, iv by LC-MS/MS analysis; assay type: ADME, organism-based; conditions: in vivo
[19] = AUCinf in CD-1 mouse assessed as parent NITD008 level at 5 mg/kg, iv by LC-MS/MS analysis; assay type: ADME, organism-based; set-up: route intravenous, time infinity, dose 5 mg/kg; conditions: in vivo
[20] = AUClast in CD-1 mouse assessed as parent NITD008 level at 25 mg/kg, po by LC-MS/MS analysis; assay type: ADME, organism-based; set-up: route oral, time 0 - last, dose 25 mg/kg; conditions: in vivo
[21] = Cmax in CD-1 mouse assessed as parent NITD008 level at 25 mg/kg, po by LC-MS/MS analysis; assay type: ADME, organism-based; set-up: route oral, dose 25 mg/kg; conditions: in vivo
[22] = Half life in CD-1 mouse assessed as parent NITD008 level at 25 mg/kg, po by LC-MS/MS analysis; assay type: ADME, organism-based; conditions: in vivo
[23] = Half life in CD-1 mouse assessed as parent NITD008 level at 5 mg/kg, iv by LC-MS/MS analysis; assay type: ADME, organism-based; conditions: in vivo
[24] = AUCinf in CD-1 mouse assessed as parent NITD008 level at 25 mg/kg, po by LC-MS/MS analysis; assay type: ADME, organism-based; set-up: route oral, time infinity, dose 25 mg/kg; conditions: in vivo
[25] = Tmax in CD-1 mouse assessed as parent NITD008 level at 25 mg/kg, po by LC-MS/MS analysis; assay type: ADME, organism-based; conditions: in vivo
[26] = AUClast in CD-1 mouse assessed as parent NITD008 level at 5 mg/kg, iv by LC-MS/MS analysis; assay type: ADME, organism-based; set-up: route intravenous, time 0 - last, dose 5 mg/kg; conditions: in vivo

Compound `C#C[C@@]1(O)[C@H](O)[C@@H](CO)O[C@H]1n1ccc2c(N)ncnc21` has an AUC(0-inf) [1] of 2790 ng·h/mL, a Tmax [2] of 0.83 h and an AUC(0-t) [3] of 2700 ng·h/mL. It also gave a selectivity ratio [4] of over 36.2, an AUC(0-t) [5] of 1970 ng·h/mL and a Cmax [6] of 6760 ng/mL. For the same compound, the selectivity ratio [7] was over 87.1, the half-life [8] was 5.09 h and the pIC50 [9] was 6.64. The half-life [10] was 9.1 h, the AUC(0-inf) [11] was 2080 ng·h/mL and the Tmax [12] was 1.98 min. It also gave a pIC50 [13] of 6.26, a Cmax [14] of 579 ng/mL and a CC50 [15] of over 20000 nM.
With `C#C[C@@]1(O)[C@H](O)[C@@H](COP(=O)(N[C@@H](CCSC)C(=O)OC(C)C)Oc2ccccc2)O[C@H]1n1ccc2c(N)ncnc21` (stereo partly drawn) the selectivity ratio [4] was 11.3, the selectivity ratio [7] was 2.92 and the pIC50 [9] was 5.51. For the same compound, the pIC50 [13] was 6.10 and the CC50 [16] was 8950 nM.
Work on `C#C[C@@]1(O)[C@H](O)[C@@H](COP(=O)(N[C@@H](CC(C)C)C(=O)OC(C)C)Oc2ccccc2)O[C@H]1n1ccc2c(N)ncnc21` (stereo partly drawn) yielded a selectivity ratio [4] of 33.8, a selectivity ratio [7] of 51.2 and a pIC50 [9] of 6.39. For the same compound, the pIC50 [13] was 6.21 and the CC50 [16] was 21000 nM.
Compound `C#C[C@@]1(O)[C@H](O)[C@@H](COP(=O)(N[C@@H](C)C(=O)OC(C)C)Oc2ccccc2)O[C@H]1n1ccc2c(N)ncnc21` (stereo partly drawn) has a selectivity ratio [4] of 17.1, a selectivity ratio [7] of 8.73 and a pIC50 [9] of 5.75. The pIC50 [13] was 6.04 and the CC50 [16] was 15500 nM.
Work on `C#C[C@@]1(O)[C@H](O)[C@@H](COP(=O)(N[C@@H](Cc2c[nH]c3ccccc23)C(=O)OC(C)C)Oc2ccccc2)O[C@H]1n1ccc2c(N)ncnc21` (stereo partly drawn) yielded a selectivity ratio [4] of 11.4, a selectivity ratio [7] of 13.4 and a pIC50 [9] of 5.99. It also gave a pIC50 [13] of 5.92 and a CC50 [16] of 13800 nM.
For `C#C[C@@]1(O)[C@H](O)[C@@H](COP(=O)(N[C@H](CCSC)C(=O)OC(C)C)Oc2ccccc2)O[C@H]1n1ccc2c(N)ncnc21` (stereo partly drawn), the selectivity ratio [7] was 0.4 and the pIC50 [9] was 4.31.
Work on `C#C[C@@]1(O)[C@H](O)[C@@H](COP(=O)(N[C@@H](C)C(=O)OCCCCCC)Oc2ccccc2)O[C@H]1n1ccc2c(N)ncnc21` (stereo partly drawn) yielded a Cmax [17] of 1403 ng/mL, a Tmax [18] of 1.98 min and an AUC [19] of 373 ng·h/mL. The AUClast [20] was 334 ng·h/mL, the selectivity ratio [4] was 262 and the Cmax [21] was 103 ng/mL. It also gave a t1/2 [22] of 5.39 h, a t1/2 [23] of 4.05 h and a selectivity ratio [7] of 94.5. For the same compound, the AUC [24] was 368 ng·h/mL, the pIC50 [9] was 6.44 and the Tmax [25] was 0.14 h. It also gave an AUClast [26] of 359 ng·h/mL, a pIC50 [13] of 6.89 and a CC50 [16] of 34000 nM.
With `C#C[C@@]1(O)[C@H](O)[C@@H](COP(=O)(N[C@@H](C)C(=O)OCCCCC)Oc2ccccc2)O[C@H]1n1ccc2c(N)ncnc21` (stereo partly drawn) the selectivity ratio [7] was 99.9, the pIC50 [9] was 6.28 and the pIC50 [13] was 6.52. It also gave a CC50 [16] of 52900 nM.
In the case of `C#C[C@@]1(O)[C@H](O)[C@@H](COP(=O)(N[C@@H](C)C(=O)OC2CCCC2)Oc2ccccc2)O[C@H]1n1ccc2c(N)ncnc21` (stereo partly drawn), the pIC50 [9] was 6.60 and the pIC50 [13] was 6.24.
`C#C[C@@]1(O)[C@H](O)[C@@H](COP(=O)(N[C@H](C(=O)OC)C(C)C)Oc2ccccc2)O[C@H]1n1ccc2c(N)ncnc21` (stereo partly drawn) gave a selectivity ratio [4] of over 72, a selectivity ratio [7] of over 6.61 and a pIC50 [9] of 5.58. The pIC50 [13] was 5.86 and the CC50 [15] was over 100000 nM.
`C#C[C@@]1(O)[C@H](O)[C@@H](COP(=O)(N[C@H](C)C(=O)OC(C)C)Oc2ccccc2)O[C@H]1n1ccc2c(N)ncnc21` (stereo partly drawn) gave a selectivity ratio [4] of over 15.8, a selectivity ratio [7] of over 8.75 and a pIC50 [9] of 4.87. It also gave a pIC50 [13] of 5.20 and a CC50 [15] of over 100000 nM.
With `C#C[C@@]1(O)[C@H](O)[C@@H](COP(=O)(N[C@@H](C)C(=O)OCC(C)(C)C)Oc2ccccc2)O[C@H]1n1ccc2c(N)ncnc21` (stereo partly drawn) the Cmax [17] was 1983 ng/mL, the Tmax [18] was 1.98 min and the AUC [19] was 833 ng·h/mL. The AUClast [20] was 722 ng·h/mL, the selectivity ratio [4] was 77.5 and the Cmax [21] was 165 ng/mL. It also gave a t1/2 [22] of 4.97 h, a t1/2 [23] of 3.3 h and a selectivity ratio [7] of 57.1. For the same compound, the AUC [24] was 744 ng·h/mL, the pIC50 [9] was 6.28 and the Tmax [25] was 0.83 h. For the same compound, the AUClast [26] was 800 ng·h/mL, the pIC50 [13] was 6.41 and the CC50 [16] was 30200 nM.

From ChEMBL document CHEMBL5034026, “Design, synthesis and evaluation of 2'-acetylene-7-deaza-adenosine phosphoamidate derivatives as anti-EV71 and anti-EV-D68 agents” (Eur J Med Chem, 2021)
